Measurements reported in patent US20070259856A1, “Method for Activating Trpv4 Channel Receptors by Agonists” (priority 2004, published 2007).
Where “and” joins values, the source holds several entries; their conditions need not be identical. Equal entries are not always repeated. Where two headings read alike, the source gives them in different places.

What was measured:
human cartilage explants = test: Aggrecan degradation (GAG, DMMB) in human cartilage explants; format: cell-based; conditions: Homo sapiens; estimated; 3-point concentration response
Experimental: Because the progression of aggrecan degradation in response to IL-1 in human cartilage is slower than in bovine cartilage, culture media was removed and replaced with fresh treatments every 2-3 days for approximately 3 weeks. For each timepoint, GAG levels were measured by DMMB assay, and cumulative data released over the entire 3 week culture period was calculated.
The data represents cumulative aggrecan degradation after 21 days in culture. […] In addition, Formula IId caused a concentration-dependent reduction of IL-1-induced aggrecan degradation. […] The estimated IC50's shown in Table 7 are very similar to those IC50's calculated from IL-1-stimulated bovine cartilage.

TRPV4 channel receptor [1] = molecular target: T1, TRPV4 channel receptor (Homo sapiens, UniProt Q9HBA0); test: FLIPR assay; format: cell-based
TRPV4 channel receptor [2] = molecular target: TRPV4 channel receptor (Rattus norvegicus, UniProt Q9ERZ8); test: Ca2+ influx in rat articular chondrocytes (FlexStation)
aggrecanase = test: IL-1 induced aggrecanase production, chondrocyte-based aggrecanase peptide cleavage assay; format: cell-based, bovine
Text: Aggrecanases (ADAMTSs), in conjunction with MMPs, degrade aggrecan, one of the major matrix components in articular cartilage. […] 2003; 48(1): 119-133].

TRPV4 channel receptor [3] = molecular target: T1, TRPV4 channel receptor; test: Ca2+ influx in human articular chondrocytes (FlexStation)
TRPV4 channel receptor [4] = molecular target: T2, TRPV4 channel receptor (Bos taurus, UniProt A0A8F4X677); test: Ca2+ influx in bovine articular chondrocytes (FlexStation); format: cell-based
T2 construct: endogenous in cells; host or cells: bovine articular chondrocytes

[5] = tested on: bovine articular cartilage explants; test: IL-1 induced aggrecan degradation (GAG release, DMMB) in bovine articular cartilage explants; format: cell-based; conditions: Bos taurus; IL-1-stimulated bovine cartilage
Text: Articular cartilage explants isolated from newborn calves at slaughter were placed in culture, and aggrecan degradation was initiated through stimulation with IL-1. Since aggrecan degradation in this model is believed to be mediated by aggrecanase, TRPV4 channel receptor agonists that are active in the chondrocyte-based aggrecanase peptide assay (Example 11) may also be effective inhibitors in the cartilage explant assay, presumably by blocking aggrecanase production in these tissues.
At the end of the culture period, conditioned media were assayed for glycosaminoglycan (GAG) levels by colorimetric (DMMB) assay as a measure of aggrecan degradation. In bovine explants, IL-1 induced a profound increase in the amount of GAG released into the media during the 3 day culture. When cartilage was treated with IL-1 in combination with Formula IIc, there was a concentration-dependent reduction in GAG release as shown in Table 5.

TRPV4 channel receptors = test: Activation of TRPV4 channel receptors in cartilage explants; format: cell-based, human, rat, rabbit, mouse, canine, monkey, or bovine; conditions: compared with chondrocytes extracted from a cartilage matrix
TRPVR1 = TRPVR1 (Homo sapiens, UniProt Q8NER1); format: cell-based; parameters: key to pEC50 TRPVR1: IA = inactive; conditions: for pEC50 TRPVR1: intracellular calcium, mean ± s.e.mean, n = 3-5
TRPV4 channel receptor [6] = molecular target: T1, TRPV4 channel receptor; test: Intracellular calcium (FLIPR, Fluo-3) in HEK293 cells transfected with human TRPV4 channel receptor; format: cell-based; parameters: V5-His (from the vector's name only); expressed in transfected cells; host or cells: HEK293; key to pEC50 TRPVR4: IA = inactive; conditions: for pEC50 TRPVR4: intracellular calcium, mean ± s.e.mean, n = 3-5
Experimental: (§1) TRPV4 channel receptor cDNA was inserted into the expression vector pcDNA3.1 V5-His (Invitrogen, Carlsbad, Calif.). Wildtype HEK293 cells, or HEK293 cells transfected with the human TRPV4 channel receptor: pcDNA3.1 V5-His construct, or mock transfected cells, or bovine chondrocytes, were seeded into 96-well microtitre plates at 25,000 cells/well and cultured overnight. The cells were then incubated with 4 μM Fluo-3 (Fluo-3: Molecular Probes (Eugene, Oreg.)) for 2 hours at room temperature in the dark. Dye loaded cells were washed 4× with Tyrodes buffer: (NaCl, 145 mM; KCl, 2.5 mM; Hepes, 10 mM; Glucose, 10 mM; MgCl2, 1.2 mM; CaCl2, 1.5 mM), which also contained 0.2% BSA but not probenecid. Agonists and antagonists were also prepared in Tyrodes buffer. Cells were preincubated for 30 minutes with antagonist or buffer. Agonist addition and measurement of cytoplasmic calcium concentration was performed in the FLIPR (Smart, et al., (2000) Br. J. Pharmacol. 129, 227-230).

wild type HEK293 cells = test: Intracellular calcium (FLIPR) in wild type HEK293 cells; format: cell-based; parameters: key to pEC50 wild type: IA = inactive; conditions: for pEC50 wild type: intracellular calcium, mean ± s.e.mean, n = 3-5
Experimental: as §1

[7] = tested on: cells transfected with empty vector; test: Intracellular calcium (FLIPR) in HEK293 cells transfected with empty vector; format: cell-based; parameters: key to pEC50 empty vector: IA = inactive; conditions: for pEC50 empty vector: intracellular calcium, mean ± s.e.mean, n = 3-5
Experimental: as §1

[8] = molecular target: T3, TRPV4 channel receptor endogenously expressed by chondrocytes (Bos taurus, UniProt A0A8F4X677); test: Intracellular calcium (FLIPR) in bovine articular chondrocytes; format: cell-based
T3 construct: endogenous in cells; host or cells: bovine articular chondrocytes
Experimental: as §1
The response was dependent upon extracellular calcium ions and was blocked by the channel blocker, ruthenium red.

T2 sequence (A0A8F4X677 1-871): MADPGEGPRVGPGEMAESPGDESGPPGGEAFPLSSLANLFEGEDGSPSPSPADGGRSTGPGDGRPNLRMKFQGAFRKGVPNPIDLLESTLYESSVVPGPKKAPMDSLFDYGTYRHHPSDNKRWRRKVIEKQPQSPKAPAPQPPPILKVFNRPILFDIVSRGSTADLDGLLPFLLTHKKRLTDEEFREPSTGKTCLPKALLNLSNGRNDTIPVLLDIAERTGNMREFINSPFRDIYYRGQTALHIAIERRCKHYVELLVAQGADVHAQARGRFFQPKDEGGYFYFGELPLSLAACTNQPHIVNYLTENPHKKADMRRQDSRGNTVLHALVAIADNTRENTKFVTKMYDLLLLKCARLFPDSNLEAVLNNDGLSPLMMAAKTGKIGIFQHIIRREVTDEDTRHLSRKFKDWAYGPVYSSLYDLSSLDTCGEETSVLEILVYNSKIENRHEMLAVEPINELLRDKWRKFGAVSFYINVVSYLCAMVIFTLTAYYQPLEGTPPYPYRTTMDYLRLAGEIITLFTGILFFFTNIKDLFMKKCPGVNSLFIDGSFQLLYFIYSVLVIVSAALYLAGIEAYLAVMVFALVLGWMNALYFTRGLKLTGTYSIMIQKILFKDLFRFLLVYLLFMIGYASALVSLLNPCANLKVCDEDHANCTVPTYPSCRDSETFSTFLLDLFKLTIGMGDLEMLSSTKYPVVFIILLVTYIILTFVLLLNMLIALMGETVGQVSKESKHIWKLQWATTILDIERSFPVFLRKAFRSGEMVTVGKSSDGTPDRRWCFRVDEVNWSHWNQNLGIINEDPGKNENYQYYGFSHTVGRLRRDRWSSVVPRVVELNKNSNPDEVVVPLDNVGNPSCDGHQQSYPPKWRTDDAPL
Sequence of TRPVR1 (Q8NER1 whole entry): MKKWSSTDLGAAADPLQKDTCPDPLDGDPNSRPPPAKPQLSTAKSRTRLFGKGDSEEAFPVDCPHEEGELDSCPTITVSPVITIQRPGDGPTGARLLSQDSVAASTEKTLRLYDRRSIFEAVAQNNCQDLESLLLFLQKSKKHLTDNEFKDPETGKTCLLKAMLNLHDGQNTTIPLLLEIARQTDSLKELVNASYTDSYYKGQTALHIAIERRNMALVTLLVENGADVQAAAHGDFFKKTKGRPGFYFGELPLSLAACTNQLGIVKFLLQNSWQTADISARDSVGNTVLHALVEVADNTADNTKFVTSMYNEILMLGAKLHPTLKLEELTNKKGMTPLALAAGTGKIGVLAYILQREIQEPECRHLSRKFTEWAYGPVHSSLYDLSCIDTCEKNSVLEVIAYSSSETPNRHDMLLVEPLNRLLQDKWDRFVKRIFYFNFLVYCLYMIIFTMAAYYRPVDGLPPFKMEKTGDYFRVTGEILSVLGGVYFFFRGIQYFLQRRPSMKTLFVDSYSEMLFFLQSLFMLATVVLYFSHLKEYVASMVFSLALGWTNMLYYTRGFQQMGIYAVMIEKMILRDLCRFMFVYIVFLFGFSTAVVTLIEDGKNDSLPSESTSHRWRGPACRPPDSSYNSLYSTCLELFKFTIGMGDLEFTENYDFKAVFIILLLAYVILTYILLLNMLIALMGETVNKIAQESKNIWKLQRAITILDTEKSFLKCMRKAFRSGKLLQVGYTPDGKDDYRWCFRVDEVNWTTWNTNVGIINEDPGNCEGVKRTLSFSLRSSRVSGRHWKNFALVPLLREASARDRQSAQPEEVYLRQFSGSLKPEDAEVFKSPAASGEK
Sequence of TRPV4 channel receptor (Rattus norvegicus, UniProt Q9ERZ8) (Q9ERZ8 whole entry): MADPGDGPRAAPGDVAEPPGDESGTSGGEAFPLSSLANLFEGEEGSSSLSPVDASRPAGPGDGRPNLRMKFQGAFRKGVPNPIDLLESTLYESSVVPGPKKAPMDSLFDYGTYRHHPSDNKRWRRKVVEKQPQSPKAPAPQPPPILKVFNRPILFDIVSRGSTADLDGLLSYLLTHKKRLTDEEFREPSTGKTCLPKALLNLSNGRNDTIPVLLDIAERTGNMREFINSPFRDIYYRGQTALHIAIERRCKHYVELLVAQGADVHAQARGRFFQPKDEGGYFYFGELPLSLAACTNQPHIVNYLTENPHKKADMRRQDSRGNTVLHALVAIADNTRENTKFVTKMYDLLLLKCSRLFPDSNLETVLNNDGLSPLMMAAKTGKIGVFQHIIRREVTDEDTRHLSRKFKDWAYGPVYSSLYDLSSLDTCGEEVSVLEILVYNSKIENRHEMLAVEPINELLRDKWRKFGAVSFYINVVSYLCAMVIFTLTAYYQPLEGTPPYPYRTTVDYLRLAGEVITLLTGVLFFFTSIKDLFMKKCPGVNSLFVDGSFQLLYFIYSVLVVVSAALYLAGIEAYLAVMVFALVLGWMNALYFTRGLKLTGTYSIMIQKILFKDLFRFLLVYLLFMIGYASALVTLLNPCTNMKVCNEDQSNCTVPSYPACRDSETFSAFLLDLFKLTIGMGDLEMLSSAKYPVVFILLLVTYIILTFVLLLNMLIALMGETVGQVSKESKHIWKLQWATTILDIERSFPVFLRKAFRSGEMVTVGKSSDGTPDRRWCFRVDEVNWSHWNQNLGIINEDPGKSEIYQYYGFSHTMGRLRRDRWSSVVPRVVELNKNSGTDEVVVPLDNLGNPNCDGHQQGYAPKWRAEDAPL
T1 sequence (Q9HBA0 whole entry): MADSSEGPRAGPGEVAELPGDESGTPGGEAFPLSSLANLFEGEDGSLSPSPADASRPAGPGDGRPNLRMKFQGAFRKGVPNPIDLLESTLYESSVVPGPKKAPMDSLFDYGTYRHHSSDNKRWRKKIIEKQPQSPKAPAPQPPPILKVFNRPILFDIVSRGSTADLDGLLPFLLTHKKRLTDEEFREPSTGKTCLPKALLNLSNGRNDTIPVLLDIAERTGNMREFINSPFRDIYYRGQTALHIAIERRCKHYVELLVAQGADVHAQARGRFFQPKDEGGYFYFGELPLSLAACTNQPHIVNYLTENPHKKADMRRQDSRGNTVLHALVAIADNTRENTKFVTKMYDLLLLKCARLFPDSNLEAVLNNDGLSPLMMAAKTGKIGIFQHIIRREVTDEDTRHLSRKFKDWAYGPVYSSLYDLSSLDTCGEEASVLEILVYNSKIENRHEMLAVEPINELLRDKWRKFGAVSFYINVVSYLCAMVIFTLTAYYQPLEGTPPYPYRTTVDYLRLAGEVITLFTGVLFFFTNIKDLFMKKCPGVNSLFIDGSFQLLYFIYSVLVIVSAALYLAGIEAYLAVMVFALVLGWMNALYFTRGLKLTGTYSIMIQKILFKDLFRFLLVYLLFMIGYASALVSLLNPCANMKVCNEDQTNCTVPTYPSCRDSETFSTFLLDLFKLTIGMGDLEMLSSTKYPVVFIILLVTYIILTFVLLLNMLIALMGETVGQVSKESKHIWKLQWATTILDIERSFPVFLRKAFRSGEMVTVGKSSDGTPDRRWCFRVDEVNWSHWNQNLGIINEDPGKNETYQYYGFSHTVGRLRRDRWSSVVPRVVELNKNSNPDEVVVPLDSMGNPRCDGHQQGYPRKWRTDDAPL
T3 sequence (A0A8F4X677 1-871): as the sequence (A0A8F4X677 1-871) above

SMILES	activation of VR1 (TRPVR1)	pEC50 TRPVR1 (TRPVR1)	Ca2+ influx (TRPV4 channel receptor [2]; rat chondrocytes)	intracellular calcium in HEK293-TRPV4 channel receptor cells (TRPV4 channel receptor [6])	pEC50 TRPVR4 (TRPV4 channel receptor [6])	Ca2+ influx (TRPV4 channel receptor [3]; human chondrocytes)	Ca2+ influx (TRPV4 channel receptor [4]; bovine chondrocytes)	effect on intracellular calcium in wild type HEK293 cells (wild type HEK293 cells)	pEC50 wild type (wild type HEK293 cells)	effect on intracellular calcium in cells transfected with empty vector [7]	pEC50 empty vector [7]	also measured
CC(C)C[C@H](NC(=O)c1cc2ccccc2s1)C(=O)NCCCN(C)S(=O)(=O)c1ccccc1C#N [Formula IIIb, N-{(1S)-1-[({3-[[(cyanophenyl)sulfonyl](methyl)amino]propyl}amino)carbonyl]-3-methylbutyl}-1-benzothiophene-2-carboxamide]	–	–	–	–	–	–	–	–	–	–	–	IC50 (human cartilage explants): 500 nM; EC50 (TRPV4 channel receptor [1]): 700 nM; EC50 (TRPV4 channel receptor [2]; RAC EC50, rat articular chondrocytes, N = 2): 370 nM and 700 nM; RAC % eff (TRPV4 channel receptor [2]; rat articular chondrocytes, N = 2): 99% and 104%; IC50 (aggrecanase): 350 nM; IC50 (aggrecanase; Bos taurus): 400 nM; EC50 (TRPV4 channel receptor [3]; Ca Influx - FLEX (human) EC50, human chondrocytes): 280 nM; EC50 (TRPV4 channel receptor [3]; HAC EC50, human articular chondrocytes, N = 2): 240 nM and 210 nM; HAC % eff (TRPV4 channel receptor [3]; human articular chondrocytes, N = 2): 124% and 130%; Ca Influx - FLEX (human) % effic. (TRPV4 channel receptor [3]; human chondrocytes): 78%; BAC % eff (TRPV4 channel receptor [4]; bovine articular chondrocytes): (104%); EC50 (TRPV4 channel receptor [4]; bovine articular chondrocytes, read-out: BAC EC50): 260 nM; Ca Influx - FLEX (bovine) % effic. (TRPV4 channel receptor [4]; bovine chondrocytes): 70%; EC50 (TRPV4 channel receptor [4]; bovine chondrocytes, read-out: Ca Influx - FLEX (bovine) EC50): 290 nM; IC50 [5]: 400 nM
CCCCCCCCCC(=O)O[C@@H]1[C@@H](C)[C@@]2(O)[C@@H](C=C(CO)C[C@@]3(O)C(=O)C(C)=C[C@@H]23)[C@@H]2C(C)(C)[C@]12OC(=O)CCCCCCCCC [Formula 4αPDD, 4α-phorbol-12,13-didecanoate]	did not activate VR1	IA	stimulated Ca^2+ influx	increased intracellular calcium	5.73 ± 0.06	stimulated Ca^2+ influx	stimulated Ca^2+ influx	without effect	IA	without effect	IA	potency and efficacy in activating TRPV4 channel receptors in cartilage explants (TRPV4 channel receptors): greatly diminished
N.N.N.N.N.N.N.N.N.N.N.N.N.N.[Cl-].[Cl-].[Cl-].[Cl-].[Cl-].[Cl-].[O-2].[O-2].[Ru+3].[Ru+3].[Ru+4] [Ruthenium Red, reference compound]	–	–	–	–	–	–	–	–	–	–	–	reversal of the effects of 4α-PDD on Ca2+ influx (TRPV4 channel receptor [2]; rat chondrocytes): reduce Ca^2+ influx down to baseline levels; reversal of the effects of 4α-PDD on Ca2+ influx (TRPV4 channel receptor [3]; human chondrocytes): reduce Ca^2+ influx down to baseline levels; reversal of the effects of 4α-PDD on Ca2+ influx (TRPV4 channel receptor [4]; bovine chondrocytes): reduce Ca^2+ influx down to baseline levels; block of the response to 4α-PDD [8]: blocked
COc1cc(CNC(=O)CCCC/C=C/C(C)C)ccc1O [capsaicin, reference compound]	–	–	no change in Ca^2+ influx	–	IA	no change in Ca^2+ influx	no change in Ca^2+ influx	–	IA	–	IA	–
CCCCCCCCCCCCCC(=O)O[C@@H]1[C@@H](C)[C@@]2(O)[C@@H](C=C(CO)C[C@]3(O)C(=O)C(C)=C[C@@H]23)[C@@H]2C(C)(C)[C@]12OC(C)=O [PMA, phorbol 12-myristate 13-acetate]	activated VR1	7.86 ± 0.06	no change in Ca^2+ influx	increased intracellular calcium	6.64 ± 0.06	no change in Ca^2+ influx	no change in Ca^2+ influx	without effect	IA	without effect	IA	Emax at VR1 (TRPVR1; compared to capsaicin and RTX): 0.46
